One experiment has as its target T1, Estrogen receptor (Homo sapiens, UniProt P03372).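 Further: potency for inhibiting coactivator peptide recruitment to the receptor.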
T1 sequence (P03372 whole entry): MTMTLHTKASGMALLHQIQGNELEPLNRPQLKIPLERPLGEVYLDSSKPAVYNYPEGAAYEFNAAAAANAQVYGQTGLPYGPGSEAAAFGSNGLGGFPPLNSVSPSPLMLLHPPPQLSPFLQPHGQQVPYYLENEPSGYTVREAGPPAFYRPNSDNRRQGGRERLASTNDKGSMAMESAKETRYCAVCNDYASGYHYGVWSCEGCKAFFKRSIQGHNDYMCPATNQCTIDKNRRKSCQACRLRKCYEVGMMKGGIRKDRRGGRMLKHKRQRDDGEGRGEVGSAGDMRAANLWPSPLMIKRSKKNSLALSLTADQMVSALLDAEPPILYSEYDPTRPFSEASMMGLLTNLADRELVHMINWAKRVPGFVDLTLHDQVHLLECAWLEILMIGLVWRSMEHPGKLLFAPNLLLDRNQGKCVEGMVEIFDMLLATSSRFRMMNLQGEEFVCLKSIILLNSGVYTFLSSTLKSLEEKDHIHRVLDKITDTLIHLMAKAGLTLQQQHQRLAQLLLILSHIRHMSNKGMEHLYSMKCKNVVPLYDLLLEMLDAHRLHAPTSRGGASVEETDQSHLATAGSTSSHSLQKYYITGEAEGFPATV

In a further experiment the test system is INS1. Nature of the experiment: beta cell apoptosis inhibitors, cytokine rescue, dose response, luminescence, retest (AID 449756).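 Further: cell death triggered by IL-1 beta plus TNF-alpha plus IFN-gamma mixture; protective hits raise ATP signal compared with cytokine alone wells.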 It counts as functional, cell-based. Conditions: Rattus norvegicus.
The nature of experiment [1]: inhibitors of intracellular T. cruzi replication, confirmation, NIH3T3 host cells, beta-gal luminescence (AID 2044).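 Further: intracellular parasites grown in NIH/3T3 mouse fibroblasts as host cells; luminescent beta-galactosidase reporter signal from transgenic T. cruzi replicating inside host cells; inhibitors lower the luminescence signal.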 Type of experiment: functional, cell-based.
Experiment [2] in a line: cytotoxicity toward NIH3T3 fibroblasts, dose response, counter-screen, cell-based, ATP luminescence, mouse fibroblasts (AID 2010).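 Further: cells exposed to compound for about 90 hours before reading.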 It counts as functional. Background: The purpose of a counterscreen is to sort out artefacts and off-target activity.
Experiment [3] has as its target T2, Microphthalmia-associated transcription factor (Homo sapiens, UniProt O75030).
T2 sequence (O75030 whole entry): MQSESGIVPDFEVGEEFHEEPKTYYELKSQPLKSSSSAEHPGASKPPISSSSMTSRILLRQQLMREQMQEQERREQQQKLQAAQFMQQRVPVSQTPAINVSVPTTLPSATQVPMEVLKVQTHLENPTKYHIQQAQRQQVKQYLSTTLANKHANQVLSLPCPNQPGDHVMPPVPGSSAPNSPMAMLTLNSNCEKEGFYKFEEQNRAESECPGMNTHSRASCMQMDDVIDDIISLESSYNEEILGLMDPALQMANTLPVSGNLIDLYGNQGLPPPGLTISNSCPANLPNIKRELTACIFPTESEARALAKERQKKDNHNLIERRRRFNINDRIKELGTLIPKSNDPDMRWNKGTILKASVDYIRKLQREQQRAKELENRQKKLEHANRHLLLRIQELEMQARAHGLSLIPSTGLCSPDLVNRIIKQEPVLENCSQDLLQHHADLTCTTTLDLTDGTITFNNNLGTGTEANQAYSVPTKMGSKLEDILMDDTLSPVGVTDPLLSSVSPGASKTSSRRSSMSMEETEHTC
Nature of the experiment: TRPM1 promoter luciferase signal decrease, dose response, MITF inhibitor project, cell-based, SK-MEL-5, cherry-picked, set 3 (AID 493073).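 Further: SK-MEL-5 melanoma cells with luciferase driven by the MITF target TRPM1 promoter.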 It counts as functional.

Experiment [4] has as its target T3, Mannose-6-phosphate isomerase (Homo sapiens, UniProt P34949).
T3 sequence (P34949 whole entry): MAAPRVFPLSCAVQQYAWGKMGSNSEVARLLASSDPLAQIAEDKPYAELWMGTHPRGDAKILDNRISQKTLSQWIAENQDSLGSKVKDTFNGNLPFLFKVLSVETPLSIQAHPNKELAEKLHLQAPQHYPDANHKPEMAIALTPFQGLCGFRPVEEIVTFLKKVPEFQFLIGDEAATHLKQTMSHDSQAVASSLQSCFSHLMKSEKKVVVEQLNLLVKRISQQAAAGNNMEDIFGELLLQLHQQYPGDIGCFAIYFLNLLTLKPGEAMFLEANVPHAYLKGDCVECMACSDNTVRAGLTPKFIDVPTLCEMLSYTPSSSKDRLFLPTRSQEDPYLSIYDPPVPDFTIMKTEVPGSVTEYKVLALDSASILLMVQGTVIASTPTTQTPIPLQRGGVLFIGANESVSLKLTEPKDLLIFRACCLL
Put plainly: human PMI inhibitors, high substrate, primary screen, biochemical, fluorescence intensity, high mannose 6-phosphate (AID 1220).

Experiment [5] has as its target T4, Histone-lysine N-methyltransferase NSD2 (Homo sapiens, UniProt O96028).
T4 sequence (O96028 whole entry): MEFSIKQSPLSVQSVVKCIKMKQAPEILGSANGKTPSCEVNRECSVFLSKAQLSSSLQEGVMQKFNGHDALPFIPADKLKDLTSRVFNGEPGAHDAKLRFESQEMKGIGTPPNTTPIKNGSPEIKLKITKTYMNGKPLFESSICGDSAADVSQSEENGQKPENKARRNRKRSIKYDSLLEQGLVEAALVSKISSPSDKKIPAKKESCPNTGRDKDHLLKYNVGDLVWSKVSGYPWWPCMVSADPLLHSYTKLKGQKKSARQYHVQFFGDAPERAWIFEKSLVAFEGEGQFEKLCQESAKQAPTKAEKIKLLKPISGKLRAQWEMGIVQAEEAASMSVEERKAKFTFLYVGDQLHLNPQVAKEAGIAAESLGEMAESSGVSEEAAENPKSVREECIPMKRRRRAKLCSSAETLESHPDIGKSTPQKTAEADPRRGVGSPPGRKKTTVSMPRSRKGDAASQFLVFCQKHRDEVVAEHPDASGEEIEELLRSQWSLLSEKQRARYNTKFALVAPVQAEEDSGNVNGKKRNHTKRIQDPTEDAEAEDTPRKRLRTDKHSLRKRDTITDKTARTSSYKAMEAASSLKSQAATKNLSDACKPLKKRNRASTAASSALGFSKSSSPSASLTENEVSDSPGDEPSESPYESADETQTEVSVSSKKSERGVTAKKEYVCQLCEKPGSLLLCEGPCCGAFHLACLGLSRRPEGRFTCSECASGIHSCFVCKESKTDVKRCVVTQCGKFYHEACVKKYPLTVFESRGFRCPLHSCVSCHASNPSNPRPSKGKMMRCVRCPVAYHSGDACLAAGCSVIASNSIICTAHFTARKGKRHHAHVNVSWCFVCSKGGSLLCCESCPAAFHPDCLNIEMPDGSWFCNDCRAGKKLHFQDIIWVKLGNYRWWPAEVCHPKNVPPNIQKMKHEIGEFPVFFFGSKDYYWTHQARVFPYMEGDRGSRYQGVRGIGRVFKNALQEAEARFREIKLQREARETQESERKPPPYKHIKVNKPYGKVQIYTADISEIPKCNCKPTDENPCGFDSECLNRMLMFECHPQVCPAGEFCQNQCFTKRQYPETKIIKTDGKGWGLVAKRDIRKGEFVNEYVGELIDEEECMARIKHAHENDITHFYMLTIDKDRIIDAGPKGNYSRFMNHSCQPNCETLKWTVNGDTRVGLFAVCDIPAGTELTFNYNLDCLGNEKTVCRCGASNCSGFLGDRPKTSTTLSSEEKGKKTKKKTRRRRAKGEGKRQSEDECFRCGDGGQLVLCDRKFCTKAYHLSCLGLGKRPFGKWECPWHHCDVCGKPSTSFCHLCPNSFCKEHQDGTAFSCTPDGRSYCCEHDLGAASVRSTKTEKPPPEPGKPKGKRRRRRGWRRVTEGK
It counts as biochemical.

The next experiment concerns the target Nonstructural protein 1 (Influenza A virus, UniProt Q194T2). It counts as functional, Influenza A virus (A/California/07/2009(H1N1)).
Experiment [6] has as its target T5, DNA repair and recombination protein RAD54-like (Homo sapiens, UniProt Q92698).
T5 sequence (Q92698 whole entry): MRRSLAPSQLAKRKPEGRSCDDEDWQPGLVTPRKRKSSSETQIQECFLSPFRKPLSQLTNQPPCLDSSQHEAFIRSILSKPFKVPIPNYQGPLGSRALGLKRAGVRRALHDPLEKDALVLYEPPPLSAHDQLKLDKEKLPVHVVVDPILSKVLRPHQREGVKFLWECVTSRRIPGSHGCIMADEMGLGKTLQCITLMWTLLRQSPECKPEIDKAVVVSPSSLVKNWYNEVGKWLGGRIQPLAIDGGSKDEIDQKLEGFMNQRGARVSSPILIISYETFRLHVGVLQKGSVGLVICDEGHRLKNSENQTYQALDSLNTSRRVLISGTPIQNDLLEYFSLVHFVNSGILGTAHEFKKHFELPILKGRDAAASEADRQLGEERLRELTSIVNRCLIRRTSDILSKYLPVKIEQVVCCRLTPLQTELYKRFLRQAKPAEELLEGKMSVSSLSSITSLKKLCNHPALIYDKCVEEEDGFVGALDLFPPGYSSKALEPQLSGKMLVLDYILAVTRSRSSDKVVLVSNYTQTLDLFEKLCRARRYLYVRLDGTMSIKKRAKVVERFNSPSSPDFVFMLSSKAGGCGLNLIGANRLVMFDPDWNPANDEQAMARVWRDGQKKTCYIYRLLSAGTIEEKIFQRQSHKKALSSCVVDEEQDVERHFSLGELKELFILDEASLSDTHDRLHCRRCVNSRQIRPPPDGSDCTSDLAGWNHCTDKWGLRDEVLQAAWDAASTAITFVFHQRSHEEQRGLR
Put plainly: inhibitors of human RAD54 branch migration, confirmation, biochemical, fluorescence, cherry-picked samples, dose series (AID 651657). It counts as functional.

Experiment [7] deals with T6, DNA repair protein RAD52 homolog (Homo sapiens, UniProt P43351).
T6 sequence (P43351 whole entry): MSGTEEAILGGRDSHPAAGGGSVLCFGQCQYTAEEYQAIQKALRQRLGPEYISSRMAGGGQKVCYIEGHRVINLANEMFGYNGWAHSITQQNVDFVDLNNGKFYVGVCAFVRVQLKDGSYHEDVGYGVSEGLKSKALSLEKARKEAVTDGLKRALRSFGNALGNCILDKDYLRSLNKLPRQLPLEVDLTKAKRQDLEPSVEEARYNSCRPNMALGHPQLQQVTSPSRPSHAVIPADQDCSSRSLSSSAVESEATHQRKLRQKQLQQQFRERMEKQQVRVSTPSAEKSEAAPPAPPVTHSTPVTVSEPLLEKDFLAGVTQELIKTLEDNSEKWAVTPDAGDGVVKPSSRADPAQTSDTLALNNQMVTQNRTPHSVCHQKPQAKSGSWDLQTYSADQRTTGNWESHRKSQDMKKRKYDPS
It counts as functional, biochemical.

Experiment [8] is described as follows: cytotoxicity in OVCAR8 ovarian cancer cells, dose response, PAX8 project, cell-based, plate reader, dry powder samples (AID 743197). Conditions: OVCAR-8. It counts as functional.
The next experiment deals with Paired box protein Pax-8 (Homo sapiens, UniProt Q06710). Nature of the experiment: inhibitors of PAX8-driven TPO luciferase reporter, dose response, RMG-I cells, cherry-pick (AID 687027).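 Further: luciferase reporter driven by Pax8 target thyroperoxidase promoter measured by SteadyGlo luminescence.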 Type of experiment: functional, cell-based. A general note: In a reporter assay the amount or activity of a reporter protein is the signal.
Experiment [9] in a line: IGROV1 ovarian cancer cell cytotoxicity, dose response, PAX8 inhibitor project, plate reader, dry powder samples (AID 743043). It counts as functional, cell-based. The following applies: IGROV-1.
The nature of experiment [10]: NIH:OVCAR-3 ovarian cancer cell cytotoxicity, dose response, PAX8 inhibitor project, plate reader, dry powder samples (AID 743044). Type of experiment: functional, cell-based.

The structures appear in SMILES notation. Active and inactive are the calls of the source.

Usually IC50 stands for the midpoint of a concentration-inhibition curve. The AC50 is the midpoint of the concentration-response curve, whichever way the signal moves. What is called EC50 is the midpoint of the concentration-response curve.

Chain of Paired box protein Pax-8 (Q06710 whole entry): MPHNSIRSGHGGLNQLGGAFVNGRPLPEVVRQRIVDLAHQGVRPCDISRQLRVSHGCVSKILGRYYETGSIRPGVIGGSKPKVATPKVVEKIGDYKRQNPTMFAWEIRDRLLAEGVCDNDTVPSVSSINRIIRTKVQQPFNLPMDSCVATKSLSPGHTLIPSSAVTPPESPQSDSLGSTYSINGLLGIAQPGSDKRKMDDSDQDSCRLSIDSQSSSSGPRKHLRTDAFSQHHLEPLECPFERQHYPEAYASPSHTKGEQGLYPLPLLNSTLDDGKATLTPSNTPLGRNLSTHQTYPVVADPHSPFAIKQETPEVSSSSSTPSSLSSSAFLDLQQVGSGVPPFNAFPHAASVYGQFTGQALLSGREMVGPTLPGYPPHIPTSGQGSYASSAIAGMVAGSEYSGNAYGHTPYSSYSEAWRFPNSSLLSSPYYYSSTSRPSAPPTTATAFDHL
Chain of Nonstructural protein 1 (Q194T2 whole entry): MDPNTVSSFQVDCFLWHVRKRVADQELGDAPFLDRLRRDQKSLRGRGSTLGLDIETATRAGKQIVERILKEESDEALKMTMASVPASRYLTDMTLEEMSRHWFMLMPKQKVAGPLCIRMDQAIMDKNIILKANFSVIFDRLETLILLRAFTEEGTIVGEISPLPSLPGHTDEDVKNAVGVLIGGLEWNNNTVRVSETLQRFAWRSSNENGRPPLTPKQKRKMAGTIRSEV

Regarding `O=C(Nc1ccc2nn(-c3ccccc3)nc2c1)c1ccc2c(c1)OCO2`, the half-maximal inhibitory concentration (IC50) on Estrogen receptor is 6.3 µM (active).
Take `Cc1ccc(-c2c[n+](Cc3ccc(Cl)cc3)c3n2CCC3)cc1`: the figures for the AC50 (in the experiment on INS1; in [3]) were 5.16 µM (active) and 14.2 µM (active), respectively. Besides, the EC50 in experiment [1] is < 0.1 µM (active); in [2] it was > 30 µM (not active); in the experiment “cells”, 0.027 µM (active).
Consider `COc1ccc(-c2nn(-c3ccccc3)cc2C(=O)N/N=C/c2ccc([N+](=O)[O-])o2)cc1`, for which the results for the EC50 (in [1]; in experiment [2]; in “cells”) were < 0.1 µM (active), > 60 µM (not active) and 0.038 µM (active), respectively.
On to `O=c1cc(O)c2sc(Nc3cccc(C(F)(F)F)c3)nc2[nH]1`, for which, in experiment [4], the IC50 is reported as > 50 µM (not active).
Regarding `Cn1cc(CN2CCCC(CNC(=O)c3ccc4c(c3)OCO4)C2)c2ccccc21` (configuration not stated), the EC50 was < 0.1 µM (active) in experiment [1], > 60 µM (not active) in experiment [2] and 0.064 µM (active) in “cells”.
In the case of `CCN(CC)CCNS(=O)(=O)c1ccc2c3c(cccc13)C(=O)N2`, the AC50 in experiment [5] was > 20 µM (inactive).
As for `CCOCC(=O)Nc1cccc(C(=O)OCC)c1`, at Estrogen receptor, the concentration for half-maximal inhibition (IC50) was > 50 µM (not active).
With `CCOc1ccc(NC2=C(OC)C(=O)c3ccccc3C2=O)cc1`, the concentration at half-maximal activity (AC50) in experiment [5] was 6.18 µM (active). For the same molecule, the IC50 on Nonstructural protein 1 was 7.02 µM (active).
Regarding `COc1cccc2sc3cc(NCCCN4CCOCC4)ccc3c(=O)c12`, the AC50 in [6] is 10.6 µM (active); in experiment [7], 5.68 µM (active).
Consider `C[C@@H]1CCCCO[C@@H](CN(C)C(=O)Nc2ccc(F)cc2)[C@H](C)CN([C@H](C)CO)C(=O)c2cc(NS(=O)(=O)c3ccc(Cl)cc3)ccc2O1`, for which the figures for the AC50 (in [8]; at Paired box protein Pax-8; in experiment [9]) were > 70 µM (inactive), 6.23 µM (active) and 53 µM (active), respectively.
For the molecule `C[C@@H]1CCCCO[C@@H](CN(C)Cc2ccc3c(c2)OCO3)[C@@H](C)CN([C@@H](C)CO)C(=O)c2cc(NC(=O)Nc3ccc(C(F)(F)F)cc3)ccc2O1`, the AC50 is 40.3 µM (active) in [10], 44 µM (active) in experiment [8], 8.56 µM (active) at Paired box protein Pax-8 and 37.4 µM (active) in experiment [9].
Regarding `O=C1C(=O)C(Cl)=C(Cl)C(Cl)=C1Cl`, the AC50 in [5] was 11.2 µM (active).

Source of the values: ChEMBL document CHEMBL1201862, “PubChem BioAssay data set” (2004).
